Measurements reported in PubChem BioAssay AID256 (DTP/NCI, 2004).
Where “and” joins values, the source holds several entries; their conditions need not be identical. Equal values may be shown once. Toxic doses and inconclusive results are not listed.

Tested on: CD2F1 mice, L1210 leukemia ip, survival T/C
Assay: NCI In Vivo Anticancer Drug Screen. Data for tumor model L1210 Leukemia (intraperitoneal) in CD2F1 (CDF1) mice
Settings: higher = longer survival
Outline: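 In this screen, transplantable tumors were grown in mice given either the compound or its vehicle. Results were expressed as the treated measurement relative to the control measurement.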

[1] = endpoint: mean survival time, dose: 50.0 mg/kg/injection, schedule: Q01DX009 (ip), vehicle: saline with Tween-80
[2] = endpoint: mean survival time, dose: 100.0 mg/kg/injection, schedule: Q01DX001 (ip), vehicle: saline with Tween-80
[3] = endpoint: mean survival time, dose: 100.0 mg/kg/injection, schedule: Q01DX009 (ip), vehicle: saline with Tween-80
[4] = endpoint: mean survival time, dose: 200.0 mg/kg/injection, schedule: Q01DX001 (ip), vehicle: saline with Tween-80
[5] = endpoint: mean survival time, dose: 200.0 mg/kg/injection, schedule: Q01DX009 (ip), vehicle: saline with Tween-80
[6] = endpoint: mean survival time, dose: 100.0 mg/kg/injection, schedule: Q04DX003 (ip), vehicle: saline with Tween-80
[7] = endpoint: mean survival time, dose: 200.0 mg/kg/injection, schedule: Q04DX003 (ip), vehicle: saline with Tween-80
[8] = endpoint: mean survival time, dose: 400.0 mg/kg/injection, schedule: Q01DX009 (ip), vehicle: saline with Tween-80
[9] = endpoint: mean survival time, dose: 400.0 mg/kg/injection, schedule: Q04DX003 (ip), vehicle: saline with Tween-80
[10] = endpoint: mean survival time, dose: 100.0 mg/kg/injection, schedule: Q04DX003 (ip), vehicle: saline
[11] = endpoint: mean survival time, dose: 200.0 mg/kg/injection, schedule: Q04DX003 (ip), vehicle: saline
[12] = endpoint: mean survival time, dose: 400.0 mg/kg/injection, schedule: Q04DX003 (ip), vehicle: saline
[13] = endpoint: mean survival time, dose: 12.5 mg/kg/injection, schedule: Q04DX003 (ip), vehicle: Klucel (hydroxypropylcellulose) (HPC)
[14] = endpoint: mean survival time, dose: 25.0 mg/kg/injection, schedule: Q04DX003 (ip), vehicle: Klucel (hydroxypropylcellulose) (HPC)
[15] = endpoint: mean survival time, dose: 100.0 mg/kg/injection, schedule: Q04DX003 (ip), vehicle: Klucel (hydroxypropylcellulose) (HPC)
[16] = endpoint: mean survival time, dose: 200.0 mg/kg/injection, schedule: Q04DX003 (ip), vehicle: Klucel (hydroxypropylcellulose) (HPC)
[17] = endpoint: mean survival time, dose: 100.0 mg/kg/injection, schedule: Q01DX009 (ip), vehicle: saline
[18] = endpoint: mean survival time, dose: 200.0 mg/kg/injection, schedule: Q01DX009 (ip), vehicle: saline
[19] = endpoint: mean survival time, dose: 400.0 mg/kg/injection, schedule: Q01DX009 (ip), vehicle: saline

O/N=C1/C2CCC(C2)C1C(O)(C(F)(F)F)C(F)(F)F (configuration not stated)
T/C [1]: 93 % of control
T/C [2]: 102 % of control
T/C [3]: 101 % of control
T/C [4]: 92 % of control
T/C [5]: 89 % of control

O=C(O)c1ccccc1C(=O)c1ccc(Cl)cc1
T/C [3]: 100 % of control
T/C [6]: 94 % of control
T/C [5]: 110 % of control
T/C [7]: 97 % of control
T/C [8]: 108 % of control
T/C [9]: 95 % of control

CCOP(=S)(OCC)N1c2ccccc2Sc2ccccc21
T/C [1]: 95 % of control
T/C [3]: 90 % of control

CCC1(OC(=O)CN2CCN(CCO)CC2)C(=O)OCc2c1cc1n(c2=O)Cc2cc3ccccc3nc2-1 (configuration not stated)
T/C (endpoint: median survival time, dose: 6.25 mg/kg/injection, schedule: Q04DX002 (ip), vehicle: water): 105 % of control and 108 % of control
T/C (endpoint: median survival time, dose: 12.5 mg/kg/injection, schedule: Q04DX002 (ip), vehicle: water): 108 % of control and 112 % of control
T/C (endpoint: median survival time, dose: 25.0 mg/kg/injection, schedule: Q04DX002 (ip), vehicle: water): 122 % of control and 110 % of control
T/C (endpoint: median survival time, dose: 100.0 mg/kg/injection, schedule: Q04DX002 (ip), vehicle: water): 177 % of control

CC(=O)C1C(=O)OC2(C)C(=O)C3=COC(/C=C\C(C)=C/C(C)C)=CC3=CC12 (configuration not stated)
T/C [3]: 100 % of control
T/C [5]: 104 % of control
T/C [7]: 91 % of control
T/C [8]: 111 % of control
T/C [9]: 88 % of control

CC(C)NC(=O)CCCn1c(=O)c2ccccc2c(=O)n1C
T/C (endpoint: mean survival time, dose: 25.0 mg/kg/injection, schedule: Q04DX003 (ip), vehicle: saline): 104 % of control
T/C (endpoint: mean survival time, dose: 50.0 mg/kg/injection, schedule: Q04DX003 (ip), vehicle: saline): 96 % of control
T/C [10]: 101 % of control
T/C [11]: 96 % of control
T/C [12]: 98 % of control

CCN(CC)CCNc1cc(C)nc(/N=C(\N)Nc2ccc(Br)c(C(F)(F)F)c2)n1
T/C [6]: 98 % of control

O=C(C1=CC=CC1=P(c1ccccc1)(c1ccccc1)c1ccccc1)C(Cl)(Cl)Cl
T/C [3]: 94 % of control
T/C [5]: 107 % of control
T/C [8]: 107 % of control

CCCCN1CCCCC1C(=O)Nc1c(C)cccc1C (configuration not stated)
T/C (endpoint: mean survival time, dose: 9.5 mg/kg/injection, schedule: Q01DX001 (ip), vehicle: saline): 102 % of control
T/C (endpoint: mean survival time, dose: 19.0 mg/kg/injection, schedule: Q01DX001 (ip), vehicle: saline): 102 % of control
T/C (endpoint: mean survival time, dose: 38.0 mg/kg/injection, schedule: Q01DX001 (ip), vehicle: saline): 100 % of control

Nc1nc(N)nc(Cc2ccccc2)n1
T/C [2]: 104 % of control
T/C [4]: 103 % of control
T/C (endpoint: mean survival time, dose: 400.0 mg/kg/injection, schedule: Q01DX001 (ip), vehicle: saline with Tween-80): 95 % of control

S=C(Nc1ccc(Cl)cc1)Nc1ccc(Cc2ccc(NC(=S)Nc3ccc(Cl)cc3)cc2)cc1
T/C (endpoint: mean survival time, dose: 100.0 mg/kg/injection, schedule: Q01DX001 (ip), vehicle: Klucel (hydroxypropylcellulose) (HPC)): 93 % of control
T/C (endpoint: mean survival time, dose: 200.0 mg/kg/injection, schedule: Q01DX001 (ip), vehicle: Klucel (hydroxypropylcellulose) (HPC)): 92 % of control
T/C (endpoint: mean survival time, dose: 400.0 mg/kg/injection, schedule: Q01DX001 (ip), vehicle: Klucel (hydroxypropylcellulose) (HPC)): 93 % of control

CC(O)C(=O)O.CCCCOC(=O)CC(O)(CC(=O)OCCCC)C(=O)OCCCC.[Cl-].[Cl-].[NH2-].[NH2-].[Pt+4]
T/C (endpoint: mean survival time, dose: 3.13 mg/kg/injection, schedule: Q04DX003 (ip), vehicle: Klucel (hydroxypropylcellulose) (HPC)): 104 % of control and 108 % of control and 105 % of control
T/C (endpoint: mean survival time, dose: 6.25 mg/kg/injection, schedule: Q04DX003 (ip), vehicle: Klucel (hydroxypropylcellulose) (HPC)): 108 % of control and 111 % of control and 98 % of control
T/C [13]: 109 % of control [middle of 4 runs]
T/C [14]: 96 % of control and 113 % of control and 104 % of control
T/C [15]: 95 % of control
T/C [16]: 113 % of control

CCCCCCCC(=O)Nc1ccccc1CC
T/C [3]: 94 % of control
T/C [5]: 100 % of control
T/C [8]: 102 % of control

Nc1ccc(Br)cc1
T/C [6]: 97 % of control
T/C [7]: 100 % of control
T/C [9]: 87 % of control

CC(=O)Oc1ccc(N2C(=O)C3C(C2=O)C2c4ccccc4C3C3CCCCN32)cc1 (configuration not stated) (tested in a mixture with another compound)
T/C (endpoint: mean survival time, dose: 25.0 mg/kg/injection, schedule: Q01DX009 (ip), vehicle: water): 101 % of control
T/C (endpoint: mean survival time, dose: 50.0 mg/kg/injection, schedule: Q01DX009 (ip), vehicle: water): 95 % of control
T/C (endpoint: mean survival time, dose: 100.0 mg/kg/injection, schedule: Q01DX009 (ip), vehicle: water): 95 % of control
T/C (endpoint: mean survival time, dose: 200.0 mg/kg/injection, schedule: Q01DX009 (ip), vehicle: water): 90 % of control

NCCC(=O)CN
T/C [17]: 110 % of control
T/C [10]: 100 % of control
T/C [18]: 101 % of control
T/C [11]: 107 % of control
T/C [19]: 91 % of control
T/C [12]: 98 % of control

Cc1nc2[nH]c(=O)n(O)c(=O)c2s1
T/C (endpoint: mean survival time, dose: 75.0 mg/kg/injection, schedule: Q01DX001 (ip), vehicle: other): 102 % of control
T/C (endpoint: mean survival time, dose: 150.0 mg/kg/injection, schedule: Q01DX001 (ip), vehicle: other): 100 % of control
T/C (endpoint: mean survival time, dose: 300.0 mg/kg/injection, schedule: Q01DX001 (ip), vehicle: other): 86 % of control

CC(=O)C1CCC2C3CC=C4CC(n5ccc(=O)[nH]c5=O)CCC4(C)C3CCC12C (configuration not stated)
T/C [13]: 97 % of control
T/C [14]: 101 % of control
T/C (endpoint: mean survival time, dose: 50.0 mg/kg/injection, schedule: Q04DX003 (ip), vehicle: Klucel (hydroxypropylcellulose) (HPC)): 97 % of control
T/C [15]: 97 % of control
T/C [16]: 92 % of control

CC(O)CN1CC(C)OC(C)C1 (configuration not stated)
T/C [17]: 100 % of control
T/C [10]: 103 % of control
T/C [18]: 100 % of control
T/C [11]: 103 % of control
T/C [19]: 100 % of control
T/C [12]: 101 % of control

Brc1ccc2c(c1)CCCC2
T/C [6]: 95 % of control
T/C [7]: 103 % of control
T/C [9]: 93 % of control

OCC1OC(n2cnc3c(NCCc4ccccc4)ncnc32)C(O)C1O (configuration not stated)
T/C (endpoint: mean survival time, dose: 12.5 mg/kg/injection, schedule: Q01DX005 (ip), vehicle: other): 101 % of control
T/C (endpoint: mean survival time, dose: 25.0 mg/kg/injection, schedule: Q01DX005 (ip), vehicle: other): 110 % of control
T/C (endpoint: mean survival time, dose: 50.0 mg/kg/injection, schedule: Q01DX005 (ip), vehicle: other): 92 % of control

CC/C(=C(/CC)c1ccc(O)cc1)c1ccc(O)cc1
T/C (endpoint: median survival time, dose: 12.5 mg/kg/injection, schedule: Q01DX009 (sc), vehicle: steriod suspending solution): 114 % of control and 105 % of control
T/C (endpoint: median survival time, dose: 25.0 mg/kg/injection, schedule: Q01DX009 (sc), vehicle: steriod suspending solution): 114 % of control and 100 % of control
T/C (endpoint: median survival time, dose: 50.0 mg/kg/injection, schedule: Q01DX009 (sc), vehicle: steriod suspending solution): 114 % of control and 105 % of control
T/C (endpoint: median survival time, dose: 100.0 mg/kg/injection, schedule: Q01DX009 (sc), vehicle: steriod suspending solution): 100 % of control

N#C[Se-].c1ccc([Te+](c2ccccc2)c2ccccc2)cc1
T/C (endpoint: median survival time, dose: 1.56 mg/kg/injection, schedule: Q01DX009 (ip), vehicle: Klucel (hydroxypropylcellulose) (HPC)): 109 % of control
T/C (endpoint: median survival time, dose: 3.12 mg/kg/injection, schedule: Q01DX009 (ip), vehicle: Klucel (hydroxypropylcellulose) (HPC)): 104 % of control
T/C (endpoint: median survival time, dose: 6.25 mg/kg/injection, schedule: Q01DX009 (ip), vehicle: Klucel (hydroxypropylcellulose) (HPC)): 105 % of control
T/C (endpoint: median survival time, dose: 12.5 mg/kg/injection, schedule: Q01DX009 (ip), vehicle: Klucel (hydroxypropylcellulose) (HPC)): 103 % of control

Cc1cc(C)c(C(=O)CC(O)(C(F)(F)F)C(F)(F)F)c(C)c1
T/C [6]: 115 % of control
T/C [7]: 107 % of control
T/C [9]: 107 % of control

CC(C)(CC(=O)O)Cc1ccc([N+](=O)[O-])cc1
T/C [6]: 102 % of control
T/C [7]: 98 % of control
T/C [9]: 102 % of control

O=C(CCC(=O)Nc1ccc(S(=O)(=O)NCCO)cc1)Nc1ccc(S(=O)(=O)NCCO)cc1
T/C (endpoint: mean survival time, dose: 12.5 mg/kg/injection, schedule: Q01DX001 (ip), vehicle: saline with Tween-80): 105 % of control
T/C (endpoint: mean survival time, dose: 12.5 mg/kg/injection, schedule: Q04DX002 (ip), vehicle: saline with Tween-80): 96 % of control
T/C (endpoint: mean survival time, dose: 25.0 mg/kg/injection, schedule: Q01DX001 (ip), vehicle: saline with Tween-80): 107 % of control
T/C (endpoint: mean survival time, dose: 25.0 mg/kg/injection, schedule: Q04DX002 (ip), vehicle: saline with Tween-80): 96 % of control
T/C (endpoint: mean survival time, dose: 50.0 mg/kg/injection, schedule: Q01DX001 (ip), vehicle: saline with Tween-80): 97 % of control
T/C (endpoint: mean survival time, dose: 50.0 mg/kg/injection, schedule: Q04DX002 (ip), vehicle: saline with Tween-80): 86 % of control
